Data set [1] relates to Helicobacter pylori (ATCC43504). Kind of data set: Anti-H. pylori in vitro efficacy test, MIC and MBC by microdilution (CLSI). In kind it is cell-based. As to conditions: strain 43504, unit not given in table (method uses μg/mL); for MIC: 3 days, microaerobic. The protocol: (§1) Helicobacter pylori (ATCC43504): Type strain for antibiotic susceptibility testing according to the Clinical & Laboratory Standards Institute (CLSI) guidelines. An antibiotic susceptibility testing was performed using the microdilution method according to the CLSI guideline. […] The bacteria were inoculated into wells containing only medium without antibiotics to prepare the positive control group, and the wells containing only medium without antibiotics or inoculated bacteria were used as the negative control group. The concentration range of the test substances, zastaprazan (JP-1366) and fexuprazan, was determined through preliminary experiments. […] The lowest concentration at which no bacterial growth was observed was determined as the MIC. […] The lowest concentration at which no bacteria growth occurred was determined as the MBC. […] All tests were performed in duplicate, and the results were determined by conducting the experiments in triplicate.

Data set [2] deals with Helicobacter pylori 26695 (ATCC700329). The description is as above. The class given is cell-based. The settings on record: strain 26695; unit not given in table (method uses μg/mL). The protocol:
as §1, with “26695 (ATCC700329): A” for “(ATCC43504): Type”, “strain isolated from a patient known to be associated with the development of gastric cancer. The strain is cytotoxin associated gene (CagA)-positive and vacuolating cytotoxin (VacA)-positive and has a well-known genetic background, so it is mainly used” for “strain”, “research purposes.” for “antibiotic susceptibility testing according to the Clinical & Laboratory Standards Institute (CLSI) guidelines.”

In data set [3] the test system is Helicobacter pylori SS1 (mouse colonizing strain). The data set is described as above. In kind it is cell-based. The protocol: as §1, with “SS1 (mouse colonizing strain): A” for “(ATCC43504): Type”, “known as Sydney strain. The strain is CagA-positive and VacA-positive and has been confirmed” for “for antibiotic susceptibility testing according”, “infect and colonize in C57BL/6 mice. The strain is used in animal testing.” for “the Clinical & Laboratory Standards Institute (CLSI) guidelines.”

Data set [4] can be described thus: Solubility seen during MIC analysis. In kind it is physicochemical. The settings on record: in MIC medium; suspension formed, MIC analysis difficult. An excerpt:
Referring to Table 4 below, since the solubility of zastaprazan (JP-1366) was low, the MIC analysis was difficult (poor solubility, formation of suspension, interference in visual/absorbance analysis), so the inhibitory effect on the H. pylori strains was confirmed through the MBC index.

The test system of data set [5] is patients with erosive gastroesophageal reflux disease. Kind of data set: Phase 2 clinical trial, healing of mucosal breaks and symptoms. The class given is in vivo, human. On the procedure: H. pylori testing was performed by 13C-urea breath test (13C-UBT), gastroscopy (Campylobacter-like organism test, CLO), or tissue biopsy to confirm H. pylori positivity/negativity. The testing was performed at the screening visit (Visit 1) or the randomization visit (Visit 2), and results from the same institution within 29 days prior to the randomization visit (Visit 2) could be substituted. This clinical trial was a randomized, double-blind, active-controlled, multicenter, phase 2 clinical trial targeting patients with erosive gastroesophageal reflux disease. After the subjects gave written consent to participate in the clinical trial, a screening test was conducted. […] At this time, the subjects were stratified by grade (A, B, C, D) according to the LA classification system classified by upper gastrointestinal endoscopy. Randomly assigned subjects took the clinical trial drug once a day according to the assigned administration group for four weeks. After four weeks of administration of the clinical trial drug, the subjects visited the clinical trial institution to undergo an upper gastrointestinal endoscopy to assess whether they were healed. Healed subjects underwent a Safety Follow-Up (F/U) two weeks later, and unhealed subjects were administered the clinical trial drug for additional four weeks (a total of 8 weeks of administration) and visited the clinical trial institution to undergo an upper gastrointestinal endoscopy. […] 3.

Data set [6] can be described thus: Drug interaction (PK) trial of JP-1366, amoxicillin and clarithromycin in healthy adult volunteers. In kind it is in vivo, human. An excerpt: Test drug and administration period A. Test drug 1: […] Jeil Pharmaceutical • Dose: […] Oral B. […] Selection and classification of clinical trial subjects […]
Data set [7] relates to Helicobacter pylori SS1 (mouse colonizing strain). Kind of data set: Efficacy of JP-1366 to enhance antibacterial activity of clarithromycin, MIC and MBC by microdilution. The class given is cell-based. As to conditions: H. pylori SS1. On the procedure: Helicobacter pylori SS1 (mouse colonizing strain): Known as Sydney strain, the strain is […] and VacA-positive, and has been confirmed to colonize mice C57BL/6 and is used in animal experiments.
An antibiotic susceptibility test was performed by the microdilution method according to CLSI guideline.
The antibiotic susceptibility test was performed using MH broth (7% horse serum, 0.4% IsoVitalex), and the susceptibility test medium for zastaprazan (JP-1366) was prepared at this time. […] Using the medium prepared in this way, clarithromycin was serially diluted 2-fold and in 16 steps, with a maximum concentration of 16 μg/mL. Wells containing only the medium without antibiotics were used as a negative control group, and wells inoculated only with the bacteria in the medium without antibiotics were used as a positive control group. H. pylori stored in a deep freezer (−70° C. or lower) was inoculated onto BHI agar (w/7% laked horse blood, 0.4% IsoVitalex) and cultured for three days at 37° C. under microaerophilic conditions (Oxoid CampyGene gas pk) and then subcultured onto a fresh medium. The cultured bacteria were harvested, suspended in PBS, and inoculated into each well at a concentration of 5×10^5 CFU/mL. Thereafter, the bacteria were cultured for three days at 37° C. under microaerophilic conditions of 5% 02, 10% CO2, and 85% N2 gas. The lowest concentration of the sample at which no bacterial growth was observed was determined as the MIC. […] The lowest concentration at which no bacterial growth was observed was determined as the minimum bactericidal concentration(MBC).
(Broth dilution looks for growth in wells or tubes with falling amounts of substance.)

Setting [8] is: strain SS1, unit not given in table (method uses μg/mL).
[9] abbreviates: JP-1366, three-drug regimen vs JP-1366 alone.
Setting [10] is: MH medium + JP1366 at ½ MIC concentration, unit not given.
Where [11] appears, read: MH medium, unit not given in table (method uses μg/mL).

Usually Cmax stands for the maximum level reached in the sampled fluid or tissue. For `Cc1cccc(C)c1CNc1cc(C(=O)N2CCC2)cn2c(C)c(C)nc12.O=C(O)CC(O)(CC(=O)O)C(=O)O` [JP-1366, azetidin-1-yl{8-[(2,6-dimethylbenzyl)amino]-2,3-dimethylimidazo[1,2-a]pyridin-6-yl}methanone citrate salt], the MBC in data set [1] was 8~32; in data set [2] it was 16~32; in data set [3] (Helicobacter pylori, stated in Example 5 method, H. pylori SS1, read-out: maximum MBC value), 32 µg/mL; in data set [3] (setting [8]), 16~32. Further, the solubility entry in data set [4] is reported as “low”. Moreover, the “healing effect compared with Nexium 40 mg” value in data set [5] (H. pylori-negative group, 20 mg) is reported as “the same effect as Nexium 40 mg”. The “symptoms (heartburn, acid reflux, heartburn/acid reflux) within 24 hours and for seven days after administration” value in data set [5] (JP-1366 5 mg two capsules (10 mg) once a day) and in data set [5] (JP-1366 20 mg one capsule once a day) was “all symptoms tended to be ameliorated” in each case. Besides, in data set [6] (setting [9]), the “AUCT higher when T3 was administered compared to T1” value is recorded as “approximately 2.4 times”. Moreover, the “AUCτ, Geometric LS Mean Ratio (T3/T1), Point Estimate” value in data set [6] (setting [9]) is on record as 2.4422. Moreover, the “Cmax, ss higher when T3 was administered compared to T1” value in data set [6] (setting [9]) is “approximately 1.8 times”. In addition, the “Cmax, ss, Geometric LS Mean Ratio (T3/T1), Point Estimate” value in data set [6] (setting [9]) is given as 1.7766. Moreover, the Cmax in data set [6] (human, in vivo, JP-1366 after T1: JP-1366 20 mg 1 capsule alone, twice daily, 5 days, oral, N = 24, read-out: Cmax, ss, Geometric LS Mean) worked out at 156 ng/mL. Moreover, the “increase of area under the concentration-time curve (AUCT) compared to single administration” value in data set [6] (zastaprazan combined with amoxicillin and clarithromycin) is given as “more than twofold”.
As for `CC[C@H]1OC(=O)[C@H](C)[C@@H](O[C@H]2C[C@@](C)(OC)[C@@H](O)[C@H](C)O2)[C@H](C)[C@@H](O[C@@H]2O[C@H](C)C[C@H](N(C)C)[C@H]2O)[C@](C)(OC)C[C@@H](C)C(=O)[C@H](C)[C@@H](O)[C@]1(C)O` [Clarithromycin], the MIC in data set [1] is reported as 0.032; in data set [2], 0.063~0.125; in data set [3] (setting [8]), 0.032; in data set [7] (setting [10]) it was 0.032 to 0.063; in data set [7] (setting [11]) it was 0.032 to 0.063. The MBC in data set [1] is recorded as 0.063; in data set [2], 0.125; in data set [3] (setting [8]), 0.125; in data set [7] (setting [10]) it was 0.032 to 0.063; in data set [7] (setting [11]), 0.063 to 0.125. Moreover, the “lowering of MBC in medium containing JP1366” value in data set [7] (medium with zastaprazan (JP1366) at ½ MIC concentration vs MH medium) is “about ½”.
Take `CNCc1cn(S(=O)(=O)c2cccc(F)c2)c(-c2ccc(F)cc2F)c1OC` [Fexuprazan]: the MIC in data set [1], in data set [2] and in data set [3] (setting [8]) was 64 each time. Also, the MBC in data set [1], in data set [2] and in data set [3] (setting [8]) was 64~128 throughout.
As for `CC1(C)S[C@@H]2[C@H](NC(=O)[C@H](N)c3ccc(O)cc3)C(=O)N2[C@H]1C(=O)O` [Amoxicillin], the MIC in data set [1] and in data set [2] was 0.016~0.032 throughout. Further, the MBC in data set [1] turned out to be 0.032; in data set [2] it was 0.032; in data set [3] (setting [8]), 0.25.
As to `COc1ccc2[nH]c([S+]([O-])Cc3ncc(C)c(OC)c3C)nc2c1` (stereo not drawn) [Omeprazole], the values for the MIC in data set [1], in data set [2] and in data set [3] (setting [8]) were 32, 32~64 and 32~64, respectively. Besides, the MBC in data set [1] is 64; in data set [2] it was 64~128; in data set [3] (setting [8]), 64~128.

Source of the values: patent publication US20260048041A1, “COMPOSITION FOR REMOVING HELICOBACTER PYLORI COMPRISING ZASTAPRAZAN OR PHARMACEUTICALLY ACCEPTABLE SALT THEREOF” (JEIL PHARMACEUTICAL CO., LTD., priority 2022, published 2026).
